Key:
BRM = BRM (Homo sapiens, UniProt P51531); assay: ATPase catalytic activity assay of BRM (ADP-Glo); assay type: biochemical; details: for IC50: read-out: BRM IC50 (μM)*
In short: (§1)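 Luminescent ADP-Glo readout of ADP generated by ATP hydrolysis. Post-reaction: ATP depletion reagent, RT 40 min; detection reagent converting ADP→ATP, RT 60 min; luminescence read.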

BRG-1 = BRG-1 (Homo sapiens, UniProt P51532); assay: ATPase catalytic activity assay of BRG-1 (ADP-Glo); assay type: biochemical; details: ATPase catalytic activity, ADP-Glo; for IC50: read-out: BRG1 IC50 (μM)*; for Emax: read-out: BRG1 Max % Inhibition
In short: as §1

Chain of BRG-1 (P51532 whole entry): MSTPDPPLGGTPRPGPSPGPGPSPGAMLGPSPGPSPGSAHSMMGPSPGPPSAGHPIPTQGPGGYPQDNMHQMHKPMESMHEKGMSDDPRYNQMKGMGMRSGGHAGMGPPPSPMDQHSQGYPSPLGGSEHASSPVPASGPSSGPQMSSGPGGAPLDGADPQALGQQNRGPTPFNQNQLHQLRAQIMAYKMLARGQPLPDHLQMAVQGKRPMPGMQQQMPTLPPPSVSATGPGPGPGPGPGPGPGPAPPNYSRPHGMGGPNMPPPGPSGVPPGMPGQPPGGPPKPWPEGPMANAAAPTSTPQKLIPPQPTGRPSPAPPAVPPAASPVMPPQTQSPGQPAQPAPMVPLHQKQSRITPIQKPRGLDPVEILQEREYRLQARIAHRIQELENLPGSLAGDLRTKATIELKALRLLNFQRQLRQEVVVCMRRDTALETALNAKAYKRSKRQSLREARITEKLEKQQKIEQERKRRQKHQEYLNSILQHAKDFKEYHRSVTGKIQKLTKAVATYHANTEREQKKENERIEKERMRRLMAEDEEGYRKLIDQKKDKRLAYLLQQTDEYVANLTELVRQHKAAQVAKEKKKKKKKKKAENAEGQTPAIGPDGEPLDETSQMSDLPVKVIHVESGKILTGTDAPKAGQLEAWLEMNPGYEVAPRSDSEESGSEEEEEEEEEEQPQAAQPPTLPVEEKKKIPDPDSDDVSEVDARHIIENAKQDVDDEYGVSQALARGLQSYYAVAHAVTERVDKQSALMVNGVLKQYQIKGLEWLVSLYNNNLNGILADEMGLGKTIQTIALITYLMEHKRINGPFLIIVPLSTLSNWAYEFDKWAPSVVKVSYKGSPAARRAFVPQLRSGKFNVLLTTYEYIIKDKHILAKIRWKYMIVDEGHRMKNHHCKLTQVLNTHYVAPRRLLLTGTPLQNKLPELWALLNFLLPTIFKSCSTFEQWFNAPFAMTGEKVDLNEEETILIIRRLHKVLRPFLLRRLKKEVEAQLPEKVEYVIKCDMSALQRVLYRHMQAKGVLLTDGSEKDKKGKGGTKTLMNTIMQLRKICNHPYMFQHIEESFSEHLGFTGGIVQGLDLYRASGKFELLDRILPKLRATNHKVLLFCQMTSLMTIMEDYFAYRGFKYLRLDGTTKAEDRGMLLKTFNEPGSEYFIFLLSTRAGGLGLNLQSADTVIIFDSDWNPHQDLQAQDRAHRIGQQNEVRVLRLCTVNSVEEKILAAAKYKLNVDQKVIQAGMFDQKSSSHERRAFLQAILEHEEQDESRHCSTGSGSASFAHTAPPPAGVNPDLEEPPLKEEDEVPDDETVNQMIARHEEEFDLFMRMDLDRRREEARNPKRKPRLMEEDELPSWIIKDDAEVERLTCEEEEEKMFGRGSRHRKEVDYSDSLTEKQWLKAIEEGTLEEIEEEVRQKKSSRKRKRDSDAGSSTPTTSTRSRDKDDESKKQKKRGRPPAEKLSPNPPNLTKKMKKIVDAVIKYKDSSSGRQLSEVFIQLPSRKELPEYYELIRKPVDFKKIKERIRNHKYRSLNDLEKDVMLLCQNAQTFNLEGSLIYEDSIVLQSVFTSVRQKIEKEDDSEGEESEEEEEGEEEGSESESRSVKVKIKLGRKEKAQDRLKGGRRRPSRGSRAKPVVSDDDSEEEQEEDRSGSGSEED
Chain of BRM (P51531 whole entry): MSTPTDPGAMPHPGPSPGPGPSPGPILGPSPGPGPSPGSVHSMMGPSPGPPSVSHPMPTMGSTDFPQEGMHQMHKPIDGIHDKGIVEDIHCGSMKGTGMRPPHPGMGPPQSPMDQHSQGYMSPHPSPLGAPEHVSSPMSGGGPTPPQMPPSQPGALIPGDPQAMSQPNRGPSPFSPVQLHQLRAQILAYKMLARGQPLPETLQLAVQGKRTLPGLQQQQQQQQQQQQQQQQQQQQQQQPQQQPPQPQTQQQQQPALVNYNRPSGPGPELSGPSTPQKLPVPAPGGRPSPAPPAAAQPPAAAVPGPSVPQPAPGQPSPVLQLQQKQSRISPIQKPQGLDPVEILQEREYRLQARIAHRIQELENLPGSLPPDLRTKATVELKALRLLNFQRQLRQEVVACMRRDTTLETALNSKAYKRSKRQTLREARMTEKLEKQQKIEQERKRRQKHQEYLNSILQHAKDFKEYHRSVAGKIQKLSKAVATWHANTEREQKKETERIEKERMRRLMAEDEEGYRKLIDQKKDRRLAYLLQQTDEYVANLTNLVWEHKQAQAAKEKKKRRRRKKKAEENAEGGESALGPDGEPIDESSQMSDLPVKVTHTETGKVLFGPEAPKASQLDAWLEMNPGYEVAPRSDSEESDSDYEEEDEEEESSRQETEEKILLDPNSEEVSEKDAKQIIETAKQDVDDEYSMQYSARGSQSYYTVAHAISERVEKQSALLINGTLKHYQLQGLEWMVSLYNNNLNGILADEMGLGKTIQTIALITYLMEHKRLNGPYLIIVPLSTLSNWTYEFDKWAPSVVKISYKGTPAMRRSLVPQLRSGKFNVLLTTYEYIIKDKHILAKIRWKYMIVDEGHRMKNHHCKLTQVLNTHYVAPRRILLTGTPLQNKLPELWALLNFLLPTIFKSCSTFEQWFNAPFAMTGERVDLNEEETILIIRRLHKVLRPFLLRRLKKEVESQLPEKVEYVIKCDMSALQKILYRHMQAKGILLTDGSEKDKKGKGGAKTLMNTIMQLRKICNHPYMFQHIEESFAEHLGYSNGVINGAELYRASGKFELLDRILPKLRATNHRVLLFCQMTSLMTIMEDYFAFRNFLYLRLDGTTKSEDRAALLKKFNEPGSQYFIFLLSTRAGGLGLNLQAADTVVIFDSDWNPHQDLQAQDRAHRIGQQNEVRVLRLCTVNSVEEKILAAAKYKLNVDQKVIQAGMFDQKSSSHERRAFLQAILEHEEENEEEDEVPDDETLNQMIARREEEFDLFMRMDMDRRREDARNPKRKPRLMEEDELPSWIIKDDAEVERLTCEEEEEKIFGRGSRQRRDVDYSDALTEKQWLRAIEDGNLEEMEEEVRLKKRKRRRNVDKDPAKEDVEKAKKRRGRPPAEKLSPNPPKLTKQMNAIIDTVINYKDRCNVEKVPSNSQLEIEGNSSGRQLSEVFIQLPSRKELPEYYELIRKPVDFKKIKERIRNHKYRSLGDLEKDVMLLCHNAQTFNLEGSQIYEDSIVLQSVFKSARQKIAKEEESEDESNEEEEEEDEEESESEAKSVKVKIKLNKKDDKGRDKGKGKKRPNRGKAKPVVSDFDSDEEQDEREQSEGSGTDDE

BRM Max % Inhibition (BRM)	IC50 (BRM)	IC50 (BRG-1)	Emax (BRG-1)	SMILES
>95%	0.1 to 1 µM	1 to 5 µM	> 70%	Cc1nccc(-c2cccc(-c3csc(NC(=O)CNC(=O)c4ccc(C)c(C(C)(C)CN)c4)n3)n2)n1 [Compound 206, 3-(2-amino-1,1-dimethyl-ethyl)-4-methyl-N-[2-[[4-[6-(2-methylpyrimidin-4-yl)-2-pyridyl]thiazol-2-yl]amino]-2-oxo-ethyl]benzamide]
>90%	0.1 to 1 µM	> 5 µM	> 50%	Cc1cc(-c2cccc(-c3csc(NC(=O)CNC(=O)c4ccc5c(c4)[C@@](C)(CO)CCC5)n3)n2)ncn1 [Compound 207, (S)-8-(hydroxymethyl)-8-methyl-N-(2-((4-(6-(6-methylpyrimidin-4-yl)pyridin-2-yl)thiazol-2-yl)amino)-2-oxoethyl)-5,6,7,8-tetrahydronaphthalene-2-carboxamide]
>95%	0.1 to 1 µM	1 to 5 µM	> 60%	Cc1cc(-c2cccc(-c3csc(NC(=O)CNC(=O)c4ccc5c(c4)[C@](C)(CO)CCC5)n3)n2)ncn1 [Compound 208, (R)-8-(hydroxymethyl)-8-methyl-N-(2-((4-(6-(6-methylpyrimidin-4-yl)pyridin-2-yl)thiazol-2-yl)amino)-2-oxoethyl)-5,6,7,8-tetrahydronaphthalene-2-carboxamide]
>90%	0.1 to 1 µM	1 to 5 µM	> 50%	CC(C)(CN)c1cccc(C(=O)NCC(=O)Nc2nc(-c3cccc(-c4cccc(CN)c4)c3)cs2)c1 [Compound 209, 3-(2-amino-1,1-dimethyl-ethyl)-N-[2-[[4-[3-[3-(aminomethyl)phenyl]phenyl]thiazol-2-yl]amino]-2-oxo-ethyl]benzamide]
>95%	< 0.1 µM	0.1 to 1 µM	> 80%	CC1(C)c2cc(C(=O)NCC(=O)Nc3nc(-c4cccc(-c5ccncc5)c4)cs3)ccc2C[C@H]1N [Compound 210, (R)-2-amino-3,3-dimethyl-N-(2-oxo-2-((4-(3-(pyridin-4-yl)phenyl)thiazol-2-yl)amino)ethyl)-2,3-dihydro-1H-indene-5-carboxamide]
>80%	0.1 to 1 µM	> 5 µM	> 40%	Cc1nccc(-c2cccc(-c3csc(NC(=O)CNC(=O)c4ccc5c(c4)[C@@](C)(CO)CCC5)n3)n2)n1 [Compound 211, (4S)-4-(hydroxymethyl)-4-methyl-N-[2-[[4-[6-(2-methylpyrimidin-4-yl)-2-pyridyl]thiazol-2-yl]amino]-2-oxo-ethyl]tetralin-6-carboxamide]
>70%	0.1 to 1 µM	> 5 µM	< 30%	Cc1nccc(-c2cccc(-c3csc(NC(=O)CNC(=O)c4ccc5c(c4)[C@](C)(CO)CCC5)n3)n2)n1 [Compound 212, (4R)-4-(hydroxymethyl)-4-methyl-N-[2-[[4-[6-(2-methylpyrimidin-4-yl)-2-pyridyl]thiazol-2-yl]amino]-2-oxo-ethyl]tetralin-6-carboxamide]
>90%	0.1 to 1 µM	0.1 to 1 µM	> 80%	Cc1nccc(-c2cccc(-c3csc(NC(=O)CNC(=O)c4ccc5c(c4)[C@@](C)(CO)CC5)n3)n2)n1 [Compound 214]
>95%	< 0.1 µM	0.1 to 1 µM	> 80%	Cc1nccc(-c2cccc(-c3csc(NC(=O)CNC(=O)c4ccc5c(c4)[C@](C)(CO)CC5)n3)n2)n1 [Compound 215]
>95%	< 0.1 µM	0.1 to 1 µM	> 90%	C[C@@H]1CN(c2cccc(-c3csc(NC(=O)CNC(=O)c4cccc(C(C)(C)C)c4)n3)c2)C[C@H](C)O1 [Compound 217, 3-tert-butyl-N-[2-[[4-[3-[(cis)-2,6-dimethylmorpholin-4-yl]phenyl]thiazol-2-yl]amino]-2-oxo-ethyl]benzamide]
>90%	0.1 to 1 µM	1 to 5 µM	> 80%	C[C@@H]1CN(c2cccc(-c3csc(NC(=O)CNC(=O)c4ccc5c(c4)[C@](C)(CO)CC5)n3)c2)C[C@H](C)O1 [Compound 218, (R)-N-(2-((4-(3-((cis)-2,6-dimethylmorpholino)phenyl)thiazol-2-yl)amino)-2-oxoethyl)-3-(hydroxymethyl)-3-methyl-2,3-dihydro-1H-indene-5-carboxamide]
>95%	< 0.1 µM	0.1 to 1 µM	> 90%	C[C@@H]1CN(c2cccc(-c3csc(NC(=O)CNC(=O)c4ccc5c(c4)[C@@](C)(CO)CC5)n3)c2)C[C@H](C)O1 [Compound 219, (S)-N-(2-((4-(3-((cis)-2,6-dimethylmorpholino)phenyl)thiazol-2-yl)amino)-2-oxoethyl)-3-(hydroxymethyl)-3-methyl-2,3-dihydro-1H-indene-5-carboxamide]
>95%	< 0.1 µM	0.1 to 1 µM	> 80%	Cc1nccc(-c2cccc(-c3csc(NC(=O)CNC(=O)c4cccc(C(C)(C)CO)c4)n3)n2)n1 [Compound 222, 3-(2-hydroxy-1,1-dimethyl-ethyl)-N-[2-[[4-[6-(2-methylpyrimidin-4-yl)-2-pyridyl]thiazol-2-yl]amino]-2-oxo-ethyl]benzamide]
>95%	< 0.1 µM	1 to 5 µM	> 80%	C[C@@H]1CN(c2cccc(-c3csc(NC(=O)CNC(=O)c4ccc5c(c4)[C@](C)(CO)CC5)n3)n2)C[C@H](C)O1 [Compound 223, (R)-N-(2-((4-(6-((cis)-2,6-dimethylmorpholino)pyridin-2-yl)thiazol-2-yl)amino)-2-oxoethyl)-3-(hydroxymethyl)-3-methyl-2,3-dihydro-1H-indene-5-carboxamide]
>95%	< 0.1 µM	0.1 to 1 µM	> 95%	C[C@@H]1CN(c2cccc(-c3csc(NC(=O)CNC(=O)c4ccc5c(c4)[C@@](C)(CO)CC5)n3)n2)C[C@H](C)O1 [Compound 224, (3S)-N-[2-[[4-[6-[(cis)-2,6-dimethylmorpholin-4-yl]-2-pyridyl]thiazol-2-yl]amino]-2-oxo-ethyl]-3-(hydroxymethyl)-3-methyl-indane-5-carboxamide]
>80%	0.1 to 1 µM	> 5 µM	> 40%	Cc1cc(-c2cccc(-c3csc(NC(=O)CNC(=O)c4ccc5c(c4)[C@](C)(CN)CCC5)n3)c2)cc(C)n1 [Compound 225, (4R)-4-(aminomethyl)-N-[2-[[4-[3-(2,6-dimethyl-4-pyridyl)phenyl]thiazol-2-yl]amino]-2-oxo-ethyl]-4-methyl-tetralin-6-carboxamide]
>95%	0.1 to 1 µM	1 to 5 µM	> 70%	C[C@]1(CO)CCc2c(C(=O)NCC(=O)Nc3nc(-c4cccc(-c5ccncc5)c4)cs3)cccc21 [Compound 226, (S)-1-(hydroxymethyl)-1-methyl-N-(2-oxo-2-((4-(3-(pyridin-4-yl)phenyl)thiazol-2-yl)amino)ethyl)-2,3-dihydro-1H-indene-4-carboxamide]
>95%	< 0.1 µM	< 0.1 µM	> 95%	Cc1cc(-c2cccc(-c3csc(NC(=O)CNC(=O)c4ccc5c(c4)[C@@](C)(CO)CC5)n3)c2)nc(C)n1 [Compound 227, (3S)-N-[2-[[4-[3-(2,6-dimethylpyrimidin-4-yl)phenyl]thiazol-2-yl]amino]-2-oxo-ethyl]-3-(hydroxymethyl)-3-methylindane-5-carboxamide]
>95%	< 0.1 µM	< 0.1 µM	> 95%	Cc1cc(-c2cccc(-c3csc(NC(=O)CNC(=O)c4ccc5c(c4)[C@](C)(CO)CC5)n3)c2)nc(C)n1 [Compound 228, (3R)-N-[2-[[4-[3-(2,6-dimethylpyrimidin-4-yl)phenyl]thiazol-2-yl]amino]-2-oxo-ethyl]-3-(hydroxymethyl)-3-methyl-indane-5-carboxamide]
>95%	< 0.1 µM	0.1 to 1 µM	> 80%	Cc1cc(-c2cccc(-c3csc(NC(=O)CNC(=O)c4cccc(C(C)(C)CO)c4)n3)n2)ncn1 [Compound 230, 3-(2-hydroxy-1,1-dimethyl-ethyl)-N-[2-[[4-[6-(6-methylpyrimidin-4-yl)-2-pyridyl]thiazol-2-yl]amino]-2-oxo-ethyl]benzamide]
>95%	< 0.1 µM	0.1 to 1 µM	> 80%	Cc1cc(-c2cccc(-c3csc(NC(=O)CNC(=O)c4ccc5c(c4)[C@@](C)(CO)CCC5)n3)c2)cc(C)n1 [Compound 231, (S)-N-(2-((4-(3-(2,6-dimethylpyridin-4-yl)phenyl)thiazol-2-yl)amino)-2-oxoethyl)-8-(hydroxymethyl)-8-methyl-5,6,7,8-tetrahydronaphthalene-2-carboxamide]
>95%	< 0.1 µM	0.1 to 1 µM	> 80%	Cc1cc(-c2cccc(-c3csc(NC(=O)CNC(=O)c4ccc5c(c4)[C@](C)(CO)CCC5)n3)c2)cc(C)n1 [Compound 232, (R)-N-(2-((4-(3-(2,6-dimethylpyridin-4-yl)phenyl)thiazol-2-yl)amino)-2-oxoethyl)-8-(hydroxymethyl)-8-methyl-5,6,7,8-tetrahydronaphthalene-2-carboxamide]

SMILES	BRM Max % Inhibition (BRM)	IC50 (BRM)	IC50 (BRG-1)	Emax (BRG-1)
Cc1cc(-c2cccc(-c3csc(NC(=O)CNC(=O)c4ccc(Cl)c(C(C)(C)CO)c4)n3)n2)ncn1 [Compound 216, 4-chloro-3-(2-hydroxy-1,1-dimethyl-ethyl)-N-[2-[[4-[6-(6-methylpyrimidin-4-yl)-2-pyridyl]thiazol-2-yl]amino]-2-oxo-ethyl]benzamide]	>95%	< 0.1 µM	0.1 to 1 µM	> 95%
